Reference: patent US20250177366A1, “COMPOSITIONS AND METHODS FOR ALLEVIATING PAIN AND REDUCING ADVERSIVENESS OF STIMULI” (UNIVERSITY OF WASHINGTON, priority 2021, published 2025)

Test system: larval zebrafish
Test: Thermal preference assay (28.5° C. vs 37.5° C.), non-sensitized
Format: in vivo, Zebrafish (Danio rerio)
Conditions: for effect of co-applied drug on AS1-induced attraction to noxious heat / temperature choice, drug alone / effect of structural analog on temperature preference (time spent in the 28.5° C. zone): 28.5° C. vs 37.5° C.; for effect of co-applied drug on AS1-induced attraction to noxious heat: drug + 5 μM AS1; for temperature choice, drug alone: without AS1; for effect of structural analog on temperature preference (time spent in the 28.5° C. zone): at the tested concentration; for Reverses 28.5° C. Choice?: temperature preference 28.5° C. vs 37.5° C., larval zebrafish
Method: Thermal preference assay. […] Once an entire plate was loaded with fish, the appropriate incubation solution was added. […] Following incubation in all experiments, the choice testing plate was transported to a dual solid-state heat/cool plate (AHP-1200° C. P; Teca) and centered such that half of each arena was positioned over each side of the heat/cool plate. […] Locomotor behavior was recorded using a Canon high-definition video camcorder suspended at a fixed position above the choice testing plate. Each trial was four minutes in duration.
For single-incubation assays (e.g. testing single chemicals), larval zebrafish were caught in 100 μL E2 media and 100 μL of the control (2% DMSO) or test chemical at 2× concentration was added to each well to achieve the final desired concentration. […] The final DMSO concentration in all solutions was 1%.

Row | Structure (SMILES) | effect of co-applied drug on AS1-induced attraction to noxious heat | temperature choice, drug alone | effect of structural analog on temperature preference (time spent in the 28.5° C. zone) | Reverses 28.5° C. Choice? | effect of structural analog on temperature preference (time spent in the 28.5° C. zone) (listed as Analog 9089110)
1 | CN1CCN(CCc2ccc(Cl)c(Cl)c2)CC1 [BD1063] | At no concentration did BD1063 influence AS1-induced attraction towards noxious heat | significantly chose the 28.5 °C side |  |  | 
2 | O=C(OCCN1CCOCC1)C1(c2ccccc2)CCCCC1 [PRE-084] | At no concentration did PRE-084 influence AS1-induced attraction towards noxious heat | potentiating preference for the 28.5 °C zone |  |  | 
3 | CN1C(=O)CN=C(c2ccccc2)c2cc(Cl)ccc21 [diazepam] |  | potentiated preference for 28.5 °C |  |  | 
4 | CC(C)c1ccc(C(=O)Nc2cccnc2)cc1 [Compound 7301738, 4-isopropyl-N-3-pyridinylbenzamide] |  |  | only had a small, if still significant, effect on temperature preference | No | 
5 | COc1ccc(Br)cc1CCc1c(F)cccc1C1=NCCN1 [ML00253764] | At no concentration did ML00253764 reduce AS1-induced attraction towards noxious heat | slightly potentiate preference towards the 28.5 °C zone |  |  | 
6 | O=C1CC2(CCCC2)CC(=O)N1CCCCN1CCN(c2ncccn2)CC1 [Buspirone, buspirone] |  | had no effect upon thermal preference |  |  | 
7 | Cc1ccc(C(=O)Nc2ccncc2)c(C)c1 [Compound 7755382, 2,4-dimethyl-N-4-pyridinylbenzamide] |  |  | prevented an analogue from replicating the effects of AS1 | No | 
8 | CCc1ccc(C(=O)Nc2cccnc2)cc1 [Compound 7947669, 4-ethyl-N-3-pyridinylbenzamide] |  |  |  | No | 
9 | COc1ccc(CC2NCCc3c2[nH]c2ccc(C)cc32)c(Cl)c1OC (stereo not drawn) [LY266097] | At no concentration did LY266097 influence AS1-induced attraction towards noxious heat | significantly chose the 28.5 °C side |  |  | 
10 | CCCc1ccc(C(=O)Nc2cccnc2)cc1 [Compound 9090934, 4-propyl-N-3-pyridinylbenzamide] |  |  | has no effect upon temperature preference | No | 
11 | CCCc1ccc(C(=O)Nc2ccncc2)cc1 [Compound 9089110, 4-propyl-N-4-pyridinylbenzamide] |  |  | abolished preference for either side | No preference for either temperature | completely ablated aversion
12 | CC(N)Cc1c[nH]c2ccc(OCc3cccs3)cc12 (stereo not drawn) [BW723C86] | At no concentration did BW723C86 influence AS1-induced attraction towards noxious heat | significantly chose the 28.5 °C side |  |  | 
13 | CCCCc1ccc(C(=O)Nc2ccncc2)cc1 [Compound 9098532, 4-butyl-N-4-pyridinylbenzamide] |  |  | prevented an analogue from replicating the effects of AS1 | No | 
14 | Cc1noc(C)c1C(=O)Nc1ccc(C(C)C)cc1 [Compound 9089180, N-(4-isopropylphenyl)-3,5-dimethyl-4-isoxazolecarboxamide] |  |  | had a significant (if small) influence upon temperature choice behavior | No | 
15 | Cc1cc(C)c(C(=O)Nc2ccncc2)c(C)c1 [Compound 9047736, 2,4,6-trimethyl-N-4-pyridinylbenzamide] |  |  | prevented an analogue from replicating the effects of AS1 | No | 
16 | CC(C)c1ccc(NC(=O)c2cccnc2)cc1 [Compound 5538018, N-(4-isopropylphenyl)nicotinamide] |  |  |  | No | 
17 | Cn1c(=O)c2c(ncn2C)n(C)c1=O [caffeine] |  | did not affect thermal preference for 28.5 °C |  |  | 
